# Data as given in PubChem BioAssay (NCI).
#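 A five-concentration, 48-hour dose response in 96-well plates underlies each endpoint, interpolated linearly between surrounding concentrations. GI50 marks 50% less growth. TGI is the concentration that stops growth completely.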
# Experiments:
# Test in all cases: growth of human tumour cells (NCI), 48 h
# 786-0 renal = system: 786-0 renal
# A498 renal = system: A498 renal
# A549 NSCLC = system: A549 NSCLC
# ACHN renal = system: ACHN renal
# BT-549 breast = system: BT-549 breast
# CAKI-1 renal = system: CAKI-1 renal
# CCRF-CEM leukemia = system: CCRF-CEM leukemia
# COLO 205 colon = system: COLO 205 colon
# DU-145 prostate = system: DU-145 prostate
# EKVX NSCLC = system: EKVX NSCLC
# HCC-2998 colon = system: HCC-2998 colon
# HCT-116 colon = system: HCT-116 colon
# HCT-15 colon = system: HCT-15 colon
# HL-60(TB) leukemia = system: HL-60(TB) leukemia
# HOP-62 NSCLC = system: HOP-62 NSCLC
# HOP-92 NSCLC = system: HOP-92 NSCLC
# HS 578T breast = system: HS 578T breast
# HT29 colon = system: HT29 colon
# IGROV1 ovarian = system: IGROV1 ovarian
# K-562 leukemia = system: K-562 leukemia
# KM12 colon = system: KM12 colon
# LOX IMVI melanoma = system: LOX IMVI melanoma
# M14 melanoma = system: M14 melanoma
# MALME-3M melanoma = system: MALME-3M melanoma
# MCF7 breast = system: MCF7 breast
# MDA-MB-231 breast = system: MDA-MB-231 breast
# MDA-MB-435 = system: MDA-MB-435
# MDA-MB-468 breast = system: MDA-MB-468 breast
# MOLT-4 leukemia = system: MOLT-4 leukemia
# NCI-H226 lung = system: NCI-H226 lung
# NCI-H23 lung = system: NCI-H23 lung
# NCI-H460 lung = system: NCI-H460 lung
# NCI-H522 lung = system: NCI-H522 lung
# NCI/ADR-RES ovarian = system: NCI/ADR-RES ovarian
# OVCAR-3 ovarian = system: OVCAR-3 ovarian
# OVCAR-4 ovarian = system: OVCAR-4 ovarian
# OVCAR-5 ovarian = system: OVCAR-5 ovarian
# OVCAR-8 ovarian = system: OVCAR-8 ovarian
# PC-3 prostate = system: PC-3 prostate
# RPMI-8226 leukemia = system: RPMI-8226 leukemia
# RXF 393 renal = system: RXF 393 renal
# SF-268 CNS = system: SF-268 CNS
# SF-295 CNS = system: SF-295 CNS
# SF-539 CNS = system: SF-539 CNS
# SK-MEL-2 melanoma = system: SK-MEL-2 melanoma
# SK-MEL-28 melanoma = system: SK-MEL-28 melanoma
# SK-MEL-5 melanoma = system: SK-MEL-5 melanoma
# SK-OV-3 ovarian = system: SK-OV-3 ovarian
# SN12C renal = system: SN12C renal
# SNB-19 CNS = system: SNB-19 CNS
# SNB-75 CNS = system: SNB-75 CNS
# SR leukemia = system: SR leukemia
# SW-620 colon = system: SW-620 colon
# T-47D breast = system: T-47D breast
# TK-10 renal = system: TK-10 renal
# U251 CNS = system: U251 CNS
# UACC-257 melanoma = system: UACC-257 melanoma
# UACC-62 melanoma = system: UACC-62 melanoma
# UO-31 renal = system: UO-31 renal
smiles,measurement,setting,value
COc1ccc2[nH]c(=O)c(CSc3ccccc3Nc3nccc(-c4ccc(C(F)(F)F)cc4)n3)cc2c1,GI50,786-0 renal,6.43 µM
same,TGI,786-0 renal,19.1 µM
same,GI50,A498 renal,13.8 µM
same,TGI,A498 renal,26.7 µM
same,GI50,A549 NSCLC,5.28 µM
same,TGI,A549 NSCLC,18.5 µM
same,GI50,ACHN renal,5 µM
same,TGI,ACHN renal,16.9 µM
same,GI50,BT-549 breast,6.57 µM
same,TGI,BT-549 breast,19.7 µM
same,GI50,CAKI-1 renal,9.2 µM
same,TGI,CAKI-1 renal,21.2 µM
same,GI50,CCRF-CEM leukemia,3.84 µM
same,TGI,CCRF-CEM leukemia,18.5 µM
same,GI50,COLO 205 colon,11.1 µM
same,TGI,COLO 205 colon,23.1 µM
same,GI50,DU-145 prostate,8.89 µM
same,TGI,DU-145 prostate,21 µM
same,GI50,EKVX NSCLC,10.3 µM
same,TGI,EKVX NSCLC,22.4 µM
same,GI50,HCC-2998 colon,5.27 µM
same,TGI,HCC-2998 colon,18.1 µM
same,GI50,HCT-116 colon,3.14 µM
same,TGI,HCT-116 colon,10.6 µM
same,GI50,HCT-15 colon,4.69 µM
same,TGI,HCT-15 colon,16.7 µM
same,GI50,HL-60(TB) leukemia,8.6 µM
same,TGI,HL-60(TB) leukemia,28.2 µM
same,GI50,HOP-62 NSCLC,15.4 µM
same,TGI,HOP-62 NSCLC,28.7 µM
same,GI50,HOP-92 NSCLC,2.2 µM
same,TGI,HOP-92 NSCLC,17.3 µM
same,GI50,HS 578T breast,13.2 µM
same,TGI,HS 578T breast,36.5 µM
same,GI50,HT29 colon,3.64 µM
same,TGI,HT29 colon,12.7 µM
same,GI50,IGROV1 ovarian,9.67 µM
same,TGI,IGROV1 ovarian,21.4 µM
same,GI50,K-562 leukemia,4.46 µM
same,TGI,K-562 leukemia,21.6 µM
same,GI50,KM12 colon,5.6 µM
same,TGI,KM12 colon,17.9 µM
same,GI50,LOX IMVI melanoma,3.06 µM
same,TGI,LOX IMVI melanoma,11.5 µM
same,GI50,M14 melanoma,11.2 µM
same,TGI,M14 melanoma,23.2 µM
same,GI50,MALME-3M melanoma,12 µM
same,TGI,MALME-3M melanoma,24.3 µM
same,GI50,MCF7 breast,2.97 µM
same,TGI,MCF7 breast,11 µM
same,GI50,MDA-MB-231 breast,11.1 µM
same,TGI,MDA-MB-231 breast,23.1 µM
same,GI50,MDA-MB-435,8.95 µM
same,TGI,MDA-MB-435,21.1 µM
same,GI50,MDA-MB-468 breast,2.65 µM
same,TGI,MDA-MB-468 breast,10.2 µM
same,GI50,MOLT-4 leukemia,3.59 µM
same,TGI,MOLT-4 leukemia,15.7 µM
same,GI50,NCI-H226 lung,4.76 µM
same,TGI,NCI-H226 lung,18.8 µM
same,GI50,NCI-H23 lung,6.28 µM
same,TGI,NCI-H23 lung,19.3 µM
same,GI50,NCI-H460 lung,4.05 µM
same,TGI,NCI-H460 lung,14.5 µM
same,GI50,NCI-H522 lung,3.82 µM
same,TGI,NCI-H522 lung,16.2 µM
same,GI50,NCI/ADR-RES ovarian,4.32 µM
same,TGI,NCI/ADR-RES ovarian,17.5 µM
same,GI50,OVCAR-3 ovarian,3.48 µM
same,TGI,OVCAR-3 ovarian,15.2 µM
same,GI50,OVCAR-4 ovarian,3.42 µM
same,TGI,OVCAR-4 ovarian,13.7 µM
same,GI50,OVCAR-5 ovarian,13 µM
same,TGI,OVCAR-5 ovarian,25.7 µM
same,GI50,OVCAR-8 ovarian,9.59 µM
same,TGI,OVCAR-8 ovarian,21.4 µM
same,GI50,PC-3 prostate,3.2 µM
same,TGI,PC-3 prostate,12.6 µM
same,GI50,RPMI-8226 leukemia,3.27 µM
same,TGI,RPMI-8226 leukemia,15.4 µM
same,GI50,RXF 393 renal,3.03 µM
same,TGI,RXF 393 renal,8.62 µM
same,GI50,SF-268 CNS,5.15 µM
same,TGI,SF-268 CNS,18.2 µM
same,GI50,SF-295 CNS,10.1 µM
same,TGI,SF-295 CNS,21.6 µM
same,GI50,SF-539 CNS,10.3 µM
same,TGI,SF-539 CNS,21.9 µM
same,GI50,SK-MEL-2 melanoma,10.8 µM
same,TGI,SK-MEL-2 melanoma,22.7 µM
same,GI50,SK-MEL-28 melanoma,11.8 µM
same,TGI,SK-MEL-28 melanoma,24.1 µM
same,GI50,SK-MEL-5 melanoma,10.5 µM
same,TGI,SK-MEL-5 melanoma,22.2 µM
same,GI50,SK-OV-3 ovarian,15.8 µM
same,TGI,SK-OV-3 ovarian,29.3 µM
same,GI50,SN12C renal,3.74 µM
same,TGI,SN12C renal,13.1 µM
same,GI50,SNB-19 CNS,13.5 µM
same,TGI,SNB-19 CNS,26.3 µM
same,GI50,SNB-75 CNS,12.5 µM
same,TGI,SNB-75 CNS,25.5 µM
same,GI50,SR leukemia,2.91 µM
same,TGI,SR leukemia,11.1 µM
same,GI50,SW-620 colon,5.43 µM
same,TGI,SW-620 colon,18.2 µM
same,GI50,T-47D breast,5.66 µM
same,TGI,T-47D breast,20.3 µM
same,GI50,TK-10 renal,17.4 µM
same,TGI,TK-10 renal,31.2 µM
same,GI50,U251 CNS,10.5 µM
same,TGI,U251 CNS,22.3 µM
same,GI50,UACC-257 melanoma,13 µM
same,TGI,UACC-257 melanoma,25.7 µM
same,GI50,UACC-62 melanoma,11.8 µM
same,TGI,UACC-62 melanoma,24 µM
same,GI50,UO-31 renal,4.5 µM
same,TGI,UO-31 renal,18.1 µM
